Measurements reported in ChEMBL document CHEMBL1128401, “Structure-activity relationships in the 8-amino-6,7,8,9-tetrahydro-3H-benz[e]indole ring system. 1. Effects of substituents in the aromatic system on serotonin and dopamine receptor subtypes” (J Med Chem, 1995).
Activity calls are given as the source filed them. No cut-off for these calls is given here.

Assays:
[1] = target: T1, 5-hydroxytryptamine receptor 1A (Rattus norvegicus, UniProt P19327); experiment: Binding affinity against 5-hydroxytryptamine 1A receptor from CHO-K1 cells, using [3H]8-OH-DPAT as the radioligand.; assay type: cell-based
T1 sequence (P19327 whole entry): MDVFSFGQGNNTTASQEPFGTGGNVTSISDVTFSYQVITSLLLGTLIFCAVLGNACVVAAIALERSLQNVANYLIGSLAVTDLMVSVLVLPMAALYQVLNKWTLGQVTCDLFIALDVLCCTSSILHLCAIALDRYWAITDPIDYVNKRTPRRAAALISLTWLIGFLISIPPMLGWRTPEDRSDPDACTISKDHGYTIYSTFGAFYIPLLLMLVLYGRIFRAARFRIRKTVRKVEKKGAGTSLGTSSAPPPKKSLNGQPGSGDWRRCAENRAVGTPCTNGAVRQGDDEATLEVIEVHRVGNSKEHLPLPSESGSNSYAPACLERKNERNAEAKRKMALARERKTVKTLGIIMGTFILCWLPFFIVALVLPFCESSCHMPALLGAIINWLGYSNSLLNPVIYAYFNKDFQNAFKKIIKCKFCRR

D(3) dopamine receptor [2] = target: T2, D(3) dopamine receptor (Rattus norvegicus, UniProt P19020); experiment: Binding affinity against Dopamine receptor D3 from CHO-K1 cells, using [3H]spiperone as the radioligand.; assay type: cell-based
[3] = target: 5-hydroxytryptamine receptor 1B (Homo sapiens, UniProt P28222); experiment: Binding affinity against 5-hydroxytryptamine 1D receptor beta expressed in CHO-K1 cells, using [3H]5-HT as the radioligand.; assay type: cell-based
D(2) dopamine receptor [4] = target: T3, D(2) dopamine receptor (Rattus norvegicus, UniProt P61169); experiment: Binding affinity against Dopamine receptor D2 from CHO-K1 cells, using [3H]U-86,170 as the radioligand.; assay type: cell-based
[5] = target: 5-hydroxytryptamine receptor 1D (Homo sapiens, UniProt P28221); experiment: Binding affinity against 5-hydroxytryptamine 1D receptor alpha expressed in CHO-K1 cells, using [3H]-5-HT as the radioligand.; assay type: cell-based; settings: read-out: Ki
[6] = tmax in hours at a po dose of 10.0(pmol/g/h).; assay type: ADME, organism-based; settings: in vivo
[7] = Ratio of the 5-HTP accumulation decrease in limbic regions after oral and subcutaneous administration in rat.; assay type: functional, Limbic system
[8] = tmax in hours at a iv dose of 2.0(pmol/g/h).; assay type: ADME, organism-based; settings: in vivo
Rattus norvegicus [9] = experiment: Bioavailability in male Sprague-Dawley rats, after the po administration at a dose of 10.0(pmol/g/h); assay type: ADME, organism-based; settings: in vivo
[10] = Bioavailability in rat plasma following iv/po dose; assay type: ADME, organism-based
Rattus norvegicus [11] = experiment: Bioavailability in male Sprague-Dawley rats, after the iv administration at a dose of 2.0(pmol/g/h); assay type: ADME, organism-based; settings: in vivo
D(3) dopamine receptor [12] = target: T2, D(3) dopamine receptor; experiment: The compound was tested in vitro for binding affinity against cloned mammalian Dopamine receptor D3 expressed in CHO cells by, using [3H]spiperone as radioligand; assay type: cell-based
Rattus norvegicus [13] = experiment: compound was tested in vivo for 5-HTP accumulation in hemispheres (cortex) against reserpine-pretreated rats; I= inactive at the highest dose tested (50).; assay type: functional, organism-based
Rattus norvegicus [14] = experiment: The compound was tested in vivo for DOPA accumulation in hemispheres (cortex) against reserpine-pretreated rats; I= inactive at the highest dose tested (50).; assay type: functional, organism-based
Rattus norvegicus [15] = experiment: compound was tested in vivo for 5-HTP accumulation in limbic system against reserpine-pretreated rats; I= inactive at the highest dose tested (50).; assay type: functional, organism-based
Rattus norvegicus [16] = experiment: compound was tested in vivo for DOPA accumulation in corpus striatum against reserpine-pretreated rats; P=significant partial reduction only at the highest dose tested (50).; assay type: functional, organism-based
D(2) dopamine receptor [17] = target: T3, D(2) dopamine receptor; experiment: Binding affinity against Dopamine receptor D2 expressed in CHO-K1 cells, using [3H]U-86170 as the radioligand.; assay type: cell-based
Rattus norvegicus [18] = experiment: The compound was tested in vivo for DOPA accumulation in limbic system against reserpine-pretreated rats; I= inactive at the highest dose tested (50).; assay type: functional, organism-based
Rattus norvegicus [19] = experiment: compound was tested in vivo for 5-HTP accumulation in corpus striatum against reserpine-pretreated rats, activity expressed as ED50; I= inactive at the highest dose tested (50).; assay type: functional, organism-based
Rattus norvegicus [20] = experiment: In vivo for 5-HTP accumulation in corpus striatum against reserpine-pretreated rats.; assay type: functional
Rattus norvegicus [21] = experiment: In vivo for 5-HTP accumulation in limbic system against reserpine-pretreated rats.; assay type: functional
Rattus norvegicus [22] = experiment: The Compound was tested in vivo for DOPA accumulation in hemispheres (cortex) against reserpine-pretreated rats;I= inactive at the highest dose (12.5); assay type: functional, organism-based
Rattus norvegicus [23] = experiment: In vivo for 5-HTP accumulation in hemispheres (cortex) against reserpine-pretreated rats.; assay type: functional
Rattus norvegicus [24] = experiment: In vivo for DOPA accumulation in corpus striatum against reserpine-pretreated rats.; assay type: functional
Rattus norvegicus [25] = experiment: In vivo for DOPA accumulation in limbic system against reserpine-pretreated rats.; assay type: functional
Rattus norvegicus [26] = experiment: compound was tested in vivo for 5-HTP accumulation in corpus striatum against reserpine-pretreated rats, activity expressed as ED50; assay type: functional
Rattus norvegicus [27] = experiment: The compound was tested in vivo for DOPA accumulation in hemispheres (cortex) against reserpine-pretreated rats;I= inactive at the highest dose tested; assay type: functional, organism-based
D(3) dopamine receptor [28] = target: T2, D(3) dopamine receptor; experiment: Binding affinity against Dopamine receptor D3 expressed in CHO-K1 cells, using [3H]spiperone as the radioligand.; assay type: cell-based
Rattus norvegicus [29] = experiment: The Compound was tested in vivo for DOPA accumulation in hemispheres (cortex) against reserpine-pretreated rats; I=inactive at the highest dose tested (3.1).; assay type: functional, organism-based
Rattus norvegicus [30] = experiment: The Compound was tested in vivo for DOPA accumulation in hemispheres (cortex) against reserpine-pretreated rats; P=significant partial reduction only at the highest dose tested (50).; assay type: functional, organism-based
D(3) dopamine receptor [31] = target: T2, D(3) dopamine receptor; experiment: Compound was tested for binding affinity against Dopamine receptor D3 expressed in CHO-K1 cells, using [3H]spiperone as the radioligand; I= inactive at the highest dose tested (12.5).; assay type: cell-based
D(2) dopamine receptor [32] = target: T3, D(2) dopamine receptor; settings: cho-k1
Rattus norvegicus [33] = experiment: The Compound was tested in vivo for DOPA accumulation in hemispheres (cortex) against reserpine-pretreated rats; I=inactive at the highest dose tested (50).; assay type: functional, organism-based
Rattus norvegicus [34] = experiment: Compound was tested in vivo for DOPA accumulation in corpus striatum against reserpine-pretreated rats; P=significant partial reduction only at the highest dose tested (50).; assay type: functional, organism-based
Rattus norvegicus [35] = experiment: The Compound was tested in vivo for DOPA accumulation in limbic system against reserpine-pretreated rats; P=significant partial reduction only at the highest dose tested (50).; assay type: functional, organism-based
Rattus norvegicus [36] = experiment: The Compound was tested in vivo for DOPA accumulation in hemispheres (cortex) against reserpine-pretreated rats;I= inactive at the highest dose tested (50).; assay type: functional, organism-based
Rattus norvegicus [37] = experiment: Compound was tested in vivo for DOPA accumulation in corpus striatum against reserpine-pretreated rats;P= significant partial reduction only at the highest dose tested (50).; assay type: functional, organism-based

T2 sequence (P19020 whole entry): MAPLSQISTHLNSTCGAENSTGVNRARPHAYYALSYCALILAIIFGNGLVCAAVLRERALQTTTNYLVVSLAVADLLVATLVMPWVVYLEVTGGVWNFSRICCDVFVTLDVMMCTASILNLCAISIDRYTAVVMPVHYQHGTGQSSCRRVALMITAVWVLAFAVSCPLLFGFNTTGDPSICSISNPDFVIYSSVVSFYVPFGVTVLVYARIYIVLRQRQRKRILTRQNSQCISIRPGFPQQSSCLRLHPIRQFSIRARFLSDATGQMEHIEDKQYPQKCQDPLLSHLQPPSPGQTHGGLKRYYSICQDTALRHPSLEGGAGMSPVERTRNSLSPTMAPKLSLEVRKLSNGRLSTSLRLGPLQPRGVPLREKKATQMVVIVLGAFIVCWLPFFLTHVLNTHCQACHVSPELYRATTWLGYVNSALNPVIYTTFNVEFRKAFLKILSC
T3 sequence (P61169 whole entry): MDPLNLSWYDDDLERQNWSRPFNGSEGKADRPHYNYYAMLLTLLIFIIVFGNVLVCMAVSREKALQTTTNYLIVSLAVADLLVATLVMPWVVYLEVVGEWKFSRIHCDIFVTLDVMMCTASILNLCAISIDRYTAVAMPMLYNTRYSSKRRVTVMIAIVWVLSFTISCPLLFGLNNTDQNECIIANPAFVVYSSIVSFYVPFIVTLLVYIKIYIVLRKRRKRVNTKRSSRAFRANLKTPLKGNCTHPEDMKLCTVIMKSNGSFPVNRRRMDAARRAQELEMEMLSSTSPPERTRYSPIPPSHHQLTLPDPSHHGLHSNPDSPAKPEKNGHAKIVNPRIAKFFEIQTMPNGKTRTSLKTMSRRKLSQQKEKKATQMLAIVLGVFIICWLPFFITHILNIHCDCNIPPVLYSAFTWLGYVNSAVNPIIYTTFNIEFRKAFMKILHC
Chain of 5-hydroxytryptamine receptor 1D (P28221 whole entry): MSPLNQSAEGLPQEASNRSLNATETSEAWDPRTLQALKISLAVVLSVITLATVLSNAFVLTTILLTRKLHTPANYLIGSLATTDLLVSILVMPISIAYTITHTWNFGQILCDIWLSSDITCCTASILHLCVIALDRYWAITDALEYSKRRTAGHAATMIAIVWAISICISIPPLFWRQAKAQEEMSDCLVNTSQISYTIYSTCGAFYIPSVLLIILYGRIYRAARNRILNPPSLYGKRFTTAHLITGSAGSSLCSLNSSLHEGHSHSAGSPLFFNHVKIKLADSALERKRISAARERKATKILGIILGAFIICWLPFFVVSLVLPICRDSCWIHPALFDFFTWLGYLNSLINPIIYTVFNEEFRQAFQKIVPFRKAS
Chain of 5-hydroxytryptamine receptor 1B (P28222 whole entry): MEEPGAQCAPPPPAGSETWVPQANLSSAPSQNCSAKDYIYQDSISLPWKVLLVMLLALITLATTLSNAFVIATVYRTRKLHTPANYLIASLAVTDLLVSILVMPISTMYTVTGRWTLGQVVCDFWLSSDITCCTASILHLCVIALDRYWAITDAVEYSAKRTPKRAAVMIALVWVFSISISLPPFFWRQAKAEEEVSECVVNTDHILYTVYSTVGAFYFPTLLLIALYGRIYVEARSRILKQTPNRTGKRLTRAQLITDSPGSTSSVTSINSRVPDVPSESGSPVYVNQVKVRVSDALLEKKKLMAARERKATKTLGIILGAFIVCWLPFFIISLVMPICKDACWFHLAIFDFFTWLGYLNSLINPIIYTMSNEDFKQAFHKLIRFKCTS

SMILES | Ki [1] [nM] | Ki ([3]; read-out: Ki) [nM] | Ki (D(2) dopamine receptor [4]) [nM] | Ki [5] [nM] | Ki (D(2) dopamine receptor [17]) [nM] | ED50 (Rattus norvegicus [20]) [µmol/kg] | ED50 (Rattus norvegicus [21]) [µmol/kg] | ED50 (Rattus norvegicus [23]) [µmol/kg] | ED50 (Rattus norvegicus [25]) [µmol/kg] | Ki (D(3) dopamine receptor [28]) [nM] | further results
CCCc1c[nH]c2c(F)cc3c(c12)CC(N(CCC)CCC)CC3 (stereo not given) | 11 | 177 | 5.9 | 8.4 | – | – | – | – | – | – | Ki (D(3) dopamine receptor [2]; read-out: Ki): 111 nM
CN(C)[C@H]1CCc2ccc3[nH]ccc3c2C1 | – | – | – | – | – | – | – | – | – | – | Tmax ([6]; 10 pmol/g/h): 48 h; ED50 ratio [7]: 18; Tmax [8]: 2 h; AUC (Rattus norvegicus [9]): 2224 pM ml-1; bioavailability [10]: 72%; AUC (Rattus norvegicus [11]): 607 pM ml-1
CCCN(CCC)C1CCc2ccc3[nH]cc(CC(F)(F)F)c3c2C1 (stereo not given) | 18 | 409 | – | 54 | 86 | – | – | – | – | – | Ki (D(3) dopamine receptor [12]): 134 nM; ED50 (Rattus norvegicus [13]): inactive; ED50 (Rattus norvegicus [14]): inactive; ED50 (Rattus norvegicus [15]): inactive; ED50 (Rattus norvegicus [16]): Weak activity; ED50 (Rattus norvegicus [18]): inactive; ED50 (Rattus norvegicus [19]): inactive
CCCN(CCC)C1CCc2cc(F)c3[nH]ccc3c2C1 (stereo not given) | 1.4 | 216 | 2.8 | – | – | 0.06 | 1.92 | 0.54 | 1.17 | – | ED50 (Rattus norvegicus [22]): inactive; ED50 (Rattus norvegicus [24]): 1 µmol/kg
CCCN(CCC)[C@H]1CCc2ccc3[nH]cc(C=O)c3c2C1 | – | 939 | 423 | 155 | – | – | – | – | – | – | ED50 (Rattus norvegicus [26]): 0.0052 µmol/kg; Ki (D(3) dopamine receptor [2]; read-out: Ki): 751 nM; ED50 (Rattus norvegicus [27]): inactive
CCCN(CCC)[C@@H]1CCc2ccc3[nH]ccc3c2C1 | – | 139 | – | 16 | 7.4 | 0.17 | 0.21 | – | 0.15 | 30 | ED50 (Rattus norvegicus [29]): inactive
CCCN(CCC)C1CCc2ccc3[nH]cc(C(=O)C(=O)N(CC)CC)c3c2C1 (stereo not given) | 7.3 | – | – | – | – | – | – | – | – | – | –
CCCN(CCC)C1CCc2ccc3[nH]cc(C)c3c2C1 (stereo not given) | – | – | – | 43 | – | – | – | – | – | 67 | –
CCCN(CCC)[C@@H]1CCc2cc(F)c3[nH]ccc3c2C1 | 1.5 | 142 | 7.8 | – | – | 0.7 | 0.53 | 0.51 | 0.49 | – | ED50 (Rattus norvegicus [22]): inactive; ED50 (Rattus norvegicus [24]): 0.63 µmol/kg
CCCN(CCC)C1CCc2ccc3[nH]cc(Cl)c3c2C1 (stereo not given) | 2 | – | – | 23 | 9.8 | – | – | – | – | 15 | Ki ([3]; cho-k1): Not Active; ED50 (Rattus norvegicus [30]): Weak activity
CCCN(CCC)[C@@H]1CCc2ccc3[nH]cc(C(=O)C(N)=O)c3c2C1 | 17 | 856 | 472 | 54 | – | – | – | – | – | – | Ki (D(3) dopamine receptor [2]; cho-k1): Not Active
CCCN(CCC)[C@H]1CCc2ccc3[nH]cc(C(=O)C(N)=O)c3c2C1 | 49 | 1100 | – | 440 | – | – | – | – | – | – | Ki (D(3) dopamine receptor [31]): Not Active; Ki (D(2) dopamine receptor [32]): Not Active
CN(C)[C@@H]1CCc2ccc3[nH]ccc3c2C1 | – | – | – | – | – | – | – | – | – | – | T max [6]: 150 h; Tmax [8]: 2 h; AUC (Rattus norvegicus [9]): 848 pM ml-1; bioavailability [10]: 46%; AUC (Rattus norvegicus [11]): 431 pM ml-1
CCCN(CCC)C1CCc2cc(F)c3c(ccn3C)c2C1 (stereo not given) | 250 | 1650 | 86 | 217 | – | – | – | – | – | – | Ki (D(3) dopamine receptor [2]; read-out: Ki): 52 nM
CCCN(CCC)C1CCc2ccc3[nH]cc(C(=O)c4ccccc4)c3c2C1 (stereo not given) | 8.6 | – | – | – | 177 | – | – | – | – | 108 | –
CCCN(CCC)[C@H]1CCc2ccc3[nH]cc(C#N)c3c2C1 | 0.5 | 304 | – | 42 | 419 | – | – | – | – | 391 | ED50 (Rattus norvegicus [33]): inactive; ED50 (Rattus norvegicus [34]): Weak activity; ED50 (Rattus norvegicus [35]): Weak activity
CCCN(CCC)[C@H]1CCc2cc(F)c3[nH]ccc3c2C1 | 3.7 | 948 | 4.4 | – | – | 0.42 | 0.74 | 0.83 | 0.8 | – | ED50 (Rattus norvegicus [22]): inactive; ED50 (Rattus norvegicus [24]): 0.43 µmol/kg
CCCN(CCC)C1CCc2ccc3c(c2C1)CC(=O)N3 (stereo not given) | 14 | 194 | 11 | 26 | – | 0.41 | 0.45 | 0.86 | 0.17 | – | ED50 (Rattus norvegicus [33]): inactive; Ki (D(3) dopamine receptor [2]; read-out: Ki): 23 nM; ED50 (Rattus norvegicus [24]): 0.25 µmol/kg
CCCN(CCC)[C@H]1CCc2ccc3[nH]ccc3c2C1 | – | 2280 | – | 440 | 17 | 0.34 | 0.21 | 0.23 | 0.51 | 22 | ED50 (Rattus norvegicus [24]): 0.82 µmol/kg; ED50 (Rattus norvegicus [29]): inactive
CCCN(CCC)C1CCc2ccc3[nH]cc(C(C)=O)c3c2C1 (stereo not given) | 14 | 587 | – | 108 | 206 | 16 | 15.5 | 13 | – | 320 | ED50 (Rattus norvegicus [36]): inactive; ED50 (Rattus norvegicus [37]): Weak activity; ED50 (Rattus norvegicus [35]): Weak activity
